Experiments:
[1] = biological target: T1, TNKS2 (Homo sapiens, UniProt Q9H2K2); assay: TNKS2 Assay B (auto-parsylation, [3H]-NAD+ SPA); assay type: biochemical; conditions: 6 nM TNKS2, auto-parsylation, over night at room temperature
T1 construct: purchased BPS Bioscience, San Diego, USA 80572 (TNKS2 Histone Ribosylation Assay Kit)
T1 sequence (Q9H2K2 1-1166): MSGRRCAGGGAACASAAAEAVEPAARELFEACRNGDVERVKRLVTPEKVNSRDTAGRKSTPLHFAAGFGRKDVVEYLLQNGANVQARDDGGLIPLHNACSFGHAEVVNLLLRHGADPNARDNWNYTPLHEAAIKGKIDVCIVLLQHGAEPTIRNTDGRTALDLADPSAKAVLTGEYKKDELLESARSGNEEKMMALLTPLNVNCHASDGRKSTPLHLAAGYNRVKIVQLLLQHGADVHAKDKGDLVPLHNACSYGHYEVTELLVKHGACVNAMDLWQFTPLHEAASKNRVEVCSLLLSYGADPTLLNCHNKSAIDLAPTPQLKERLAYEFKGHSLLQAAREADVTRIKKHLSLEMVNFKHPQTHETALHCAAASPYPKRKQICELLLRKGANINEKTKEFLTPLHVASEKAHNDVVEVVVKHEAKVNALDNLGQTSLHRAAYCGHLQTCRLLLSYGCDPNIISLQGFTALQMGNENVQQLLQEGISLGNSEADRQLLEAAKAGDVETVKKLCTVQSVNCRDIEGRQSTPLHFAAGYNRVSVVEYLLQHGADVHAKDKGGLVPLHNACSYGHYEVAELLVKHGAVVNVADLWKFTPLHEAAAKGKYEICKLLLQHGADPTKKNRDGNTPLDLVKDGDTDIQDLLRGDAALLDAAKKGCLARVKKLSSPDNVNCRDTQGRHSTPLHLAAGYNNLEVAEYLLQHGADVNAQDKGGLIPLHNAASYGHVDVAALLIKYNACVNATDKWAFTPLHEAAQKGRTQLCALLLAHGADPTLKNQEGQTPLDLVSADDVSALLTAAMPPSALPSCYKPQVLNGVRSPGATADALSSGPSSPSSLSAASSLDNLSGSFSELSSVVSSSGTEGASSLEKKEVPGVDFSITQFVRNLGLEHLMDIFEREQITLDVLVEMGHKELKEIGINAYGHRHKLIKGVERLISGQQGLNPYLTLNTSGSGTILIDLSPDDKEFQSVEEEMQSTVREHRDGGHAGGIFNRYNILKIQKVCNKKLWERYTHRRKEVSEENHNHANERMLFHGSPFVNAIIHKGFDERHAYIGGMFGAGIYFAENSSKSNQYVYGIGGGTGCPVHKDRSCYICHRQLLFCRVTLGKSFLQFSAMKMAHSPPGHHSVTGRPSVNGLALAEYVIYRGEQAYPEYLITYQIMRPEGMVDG

[2] = test system: HEK293 cells cotransfected with the FOP control vector; assay: HEK293 FOP assay (control reporter with non-functional TCF elements); assay type: cell-based; conditions: Homo sapiens, 16 hours
Summary of the method: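 Stable HEK293 line carrying FOP control reporter (randomized non-functional TCF sites, with pcDNA3), Geneticin-selected, plated 24 h before assay. Stimulated with recombinant human Wnt-3a (2500-5 ng/ml) and compounds 50 μM–15 nM (3.16-fold steps) in CAFTY buffer pH 7.4 with 2 mM Ca2+, 0.01% BSA, run parallel to TOP line.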

With `C[C@]1(C(=O)Nc2ccc(F)cc2Cl)CC[C@@H](NC(=O)c2cnn3cccnc23)CC1` [Example 180, N-{cis-4-[(2-chloro-4-fluorophenyl)carbamoyl]-4-methylcyclohexyl}pyrazolo[1,5-a]pyrimidine-3-carboxamide] as the compound, how does the IC50 [1] read?
Its IC50 is greater than 10 µM.

And the IC50 [2]?
The IC50 was no less than 50 µM.

`CNC(=O)c1[nH]cnc1C(=O)N[C@H]1CC[C@@](C)(C(=O)Nc2ccc(F)cc2Cl)CC1` [Example 181, N^4-{cis-4-[(2-chloro-4-fluorophenyl)carbamoyl]-4-methylcyclohexyl}-N^5-methyl-1H-imidazole-4,5-dicarboxamide] was tested. Which IC50 [1] did it give?
Its IC50 is greater than 10 µM.

What about the IC50 [2] of the same compound?
The IC50 was 24 µM.

With `CNC(=O)c1nc[nH]c1C(=O)N[C@H]1CC[C@]2(CCN(c3ccc(F)cc3Cl)C2=O)CC1` [Example 182, N^5-[(cis)-2-(2-chloro-4-fluorophenyl)-1-oxo-2-azaspiro[4.5]dec-8-yl]-N^4-methyl-1H-imidazole-4,5-dicarboxamide] as the compound, how does the IC50 [1] read?
The IC50 was 1 µM.

And the IC50 [2]?
The IC50 was no less than 50 µM.

For `CC1CN(C(=O)c2nc[nH]c2C(=O)N[C@H]2CC[C@@]3(CCN(c4ccc(F)cc4Cl)C3=O)CC2)CCS(=O)(=O)C1` (stereo partly drawn) [Example 183, N-[(trans)-2-(2-chloro-4-fluorophenyl)-1-oxo-2-azaspiro[4.5]dec-8-yl]-4-[(6-methyl-1,1-dioxido-1,4-thiazepan-4-yl)carbonyl]-1H-imidazole-5-carboxamide], which IC50 [1] is on record?
Its IC50 is 0.4 µM.

And the IC50 [2]?
The IC50 was no less than 50 µM.

Which results are given for `CN1CC2(CCN(C(=O)c3nc[nH]c3C(=O)N[C@H]3CC[C@@]4(CCN(c5ccc(F)cc5Cl)C4=O)CC3)C2)C1` [Example 184, N-[(trans)-2-(2-chloro-4-fluorophenyl)-1-oxo-2-azaspiro[4.5]dec-8-yl]-4-[(2-methyl-2,6-diazaspiro[3.4]oct-6-yl)carbonyl]-1H-imidazole-5-carboxamide]?
IC50 [1]: 0.0062 µM; IC50 [2]: ≥ 50 µM

How did the IC50 [1] turn out when `CN1CC2(C1)CN(C(=O)c1nc[nH]c1C(=O)N[C@H]1CC[C@@]3(CCN(c4ccc(F)cc4Cl)C3=O)CC1)C2` [Example 185, N-[(trans)-2-(2-chloro-4-fluorophenyl)-1-oxo-2-azaspiro[4.5]dec-8-yl]-4-[(6-methyl-2,6-diazaspiro[3.3]hept-2-yl)carbonyl]-1H-imidazole-5-carboxamide] was run?
Its IC50 is 0.0017 µM.

And the IC50 [2]?
Its IC50 is no less than 50 µM.

Which IC50 [1] does the source give for `NC(=O)c1nc[nH]c1C(=O)N[C@H]1CC[C@@]2(CCN(c3ccc(F)cc3Cl)C2=O)CC1` [Example 186, N^5-[(trans)-2-(2-chloro-4-fluorophenyl)-1-oxo-2-azaspiro[4.5]dec-8-yl]-1H-imidazole-4,5-dicarboxamide] here?
The IC50 was 0.0074 µM.

And the IC50 [2]?
Its IC50 is no less than 50 µM.

How did the IC50 [1] turn out when `CN1CC(NC(=O)c2nc[nH]c2C(=O)N[C@H]2CC[C@@]3(CCN(c4ccc(F)cc4Cl)C3=O)CC2)C1` [Example 187, N^5-[(trans)-2-(2-chloro-4-fluorophenyl)-1-oxo-2-azaspiro[4.5]dec-8-yl]-N^4-(1-methylazetidin-3-yl)-1H-imidazole-4,5-dicarboxamide] was run?
The IC50 was 0.0043 µM.

And the IC50 [2]?
The IC50 was no less than 50 µM.

What does the source list for `O=C(N[C@H]1CC[C@@]2(CCN(c3ccc(F)cc3Cl)C2=O)CC1)c1nc[nH]c1C(=O)NCC(F)(F)F` [Example 195, N^4-[(trans)-2-(2-chloro-4-fluorophenyl)-1-oxo-2-azaspiro[4.5]dec-8-yl]-N^5-(2,2,2-trifluoroethyl)-1H-imidazole-4,5-dicarboxamide]?
IC50 [1]: 0.0071 µM; IC50 [2]: ≥ 50 µM

How did the IC50 [1] turn out when `CNC(=O)c1nc[nH]c1C(=O)N[C@H]1CC[C@@]2(CCN(c3cc(F)c(F)cc3Cl)C2=O)CC1` [Example 196, N^5-[(trans)-2-(2-chloro-4,5-difluorophenyl)-1-oxo-2-azaspiro[4.5]dec-8-yl]-N^4-methyl-1H-imidazole-4,5-dicarboxamide] was run?
The IC50 was 0.0024 µM.

What about the IC50 [2] of the same compound?
The IC50 was 35 µM.

`CCNC(=O)c1nc[nH]c1C(=O)N[C@H]1CC[C@@]2(CCN(c3cc(F)c(F)cc3Cl)C2=O)CC1` [Example 197, N^5-[(trans)-2-(2-chloro-4,5-difluorophenyl)-1-oxo-2-azaspiro[4.5]dec-8-yl]-N^4-ethyl-1H-imidazole-4,5-dicarboxamide] was tested. Which IC50 [1] did it give?
Its IC50 is 0.0021 µM.

And the IC50 [2]?
The IC50 was 19 µM.

How did the IC50 [1] turn out when `CC(C)NC(=O)c1nc[nH]c1C(=O)N[C@H]1CC[C@@]2(CCN(c3cc(F)c(F)cc3Cl)C2=O)CC1` [Example 198, N^5-[(trans)-2-(2-chloro-4,5-difluorophenyl)-1-oxo-2-azaspiro[4.5]dec-8-yl]-N^4-(propan-2-yl)-1H-imidazole-4,5-dicarboxamide] was run?
Its IC50 is 0.0031 µM.

What about the IC50 [2] of the same compound?
Its IC50 is 19 µM.

How did the IC50 [1] turn out when `O=C(NC1CC1)c1nc[nH]c1C(=O)N[C@H]1CC[C@@]2(CCN(c3cc(F)c(F)cc3Cl)C2=O)CC1` [Example 199, N^5-[(trans)-2-(2-chloro-4,5-difluorophenyl)-1-oxo-2-azaspiro[4.5]dec-8-yl]-N^4-cyclopropyl-1H-imidazole-4,5-dicarboxamide] was run?
Its IC50 is 0.003 µM.

And the IC50 [2]?
The IC50 was 21 µM.

`O=C(N[C@H]1CC[C@@]2(CCN(c3cc(F)c(F)cc3Cl)C2=O)CC1)c1[nH]cnc1C(=O)N1CC(F)C1` [Example 200, N-[(trans)-2-(2-chloro-4,5-difluorophenyl)-1-oxo-2-azaspiro[4.5]dec-8-yl]-4-[(3-fluoroazetidin-1-yl)carbonyl]-1H-imidazole-5-carboxamide] was tested. Which IC50 [1] did it give?
Its IC50 is 0.0026 µM.

What about the IC50 [2] of the same compound?
The IC50 was 30 µM.

With `O=C(NCC(F)(F)F)c1nc[nH]c1C(=O)N[C@H]1CC[C@@]2(CCN(c3cc(F)c(F)cc3Cl)C2=O)CC1` [Example 201, N^5-[(trans)-2-(2-chloro-4,5-difluorophenyl)-1-oxo-2-azaspiro[4.5]dec-8-yl]-N^4-(2,2,2-trifluoroethyl)-1H-imidazole-4,5-dicarboxamide] as the compound, how does the IC50 [1] read?
The IC50 was 0.0022 µM.

What about the IC50 [2] of the same compound?
Its IC50 is 22 µM.

Which results are given for `COCCNC(=O)c1nc[nH]c1C(=O)N[C@H]1CC[C@@]2(CCN(c3cc(F)c(F)cc3Cl)C2=O)CC1` [Example 202, N^5-[(trans)-2-(2-chloro-4,5-difluorophenyl)-1-oxo-2-azaspiro[4.5]dec-8-yl]-N^4-(2-methoxyethyl)-1H-imidazole-4,5-dicarboxamide]?
IC50 [1]: 0.0029 µM; IC50 [2]: 39 µM

For `CNC(=O)c1nc[nH]c1C(=O)N[C@H]1CC[C@H](C(=O)N(C)c2ccccc2C)CC1` [Example 203, N^4-methyl-N^5-{trans-4-[methyl(2-methylphenyl)carbamoyl]cyclohexyl}-1H-imidazole-4,5-dicarboxamide], which IC50 [1] is on record?
Its IC50 is 0.48 µM.

What about the IC50 [2] of the same compound?
The IC50 was no less than 50 µM.

With `O=C(N[C@H]1CC[C@H](C(=O)Nc2ccc(F)cc2Cl)CC1)c1cnn2ccccc12` [Example 205, N-{trans-4-[(2-chloro-4-fluorophenyl)carbamoyl]cyclohexyl}pyrazolo[1,5-a]pyridine-3-carboxamide] as the compound, how does the IC50 [1] read?
Its IC50 is 2.5 µM.

And the IC50 [2]?
The IC50 was 25 µM.

How did the IC50 [1] turn out when `O=C(N[C@H]1CC[C@H](C(=O)Nc2ccc(F)cc2Cl)CC1)c1cnc2ccccn12` [Example 206, N-{trans-4-[(2-chloro-4-fluorophenyl)carbamoyl]cyclohexyl}imidazo[1,2-a]pyridine-3-carboxamide] was run?
The IC50 was greater than 10 µM.

What about the IC50 [2] of the same compound?
Its IC50 is 25 µM.

Which results are given for `Cc1cc(C)n2ncc(C(=O)N[C@H]3CC[C@]4(CCN(c5ccc(F)cc5)C4=O)CC3)c2n1` [Example 208, N-[(cis)-2-(4-fluorophenyl)-1-oxo-2-azaspiro[4.5]dec-8-yl]-5,7-dimethyl pyrazolo[1,5-a]pyrimidine-3-carboxamide]?
IC50 [1]: 3.2 µM; IC50 [2]: ≥ 50 µM

— patent US20180148418A1, “AMIDO-SUBSTITUTED CYCLOHEXANE DERIVATIVES” (Bayer Pharma Aktiengesellschaft, priority 2015, published 2018)
